# In US4185015A, “Methoxymethyl 6-[D-2,2-dimethyl-4-(4-hydroxyphenyl)-5-oxo-1-imidazolyl]penicillanate” (priority 1977, dated 1980):
# Where two headings read alike, the source gives them in different places.
# Tests used:
# S. aureus Smith = assay: MIC against various organisms (Table I); type: cell-based; conditions: Staphylococcus aureus, read-out: minimum inhibitory concentration
# Pr. mirabilis = assay: MIC against various organisms (Table I); type: cell-based; conditions: Proteus mirabilis, read-out: minimum inhibitory concentration
# E. coli Juhl = assay: MIC against various organisms (Table I); type: cell-based; conditions: Escherichia coli, read-out: minimum inhibitory concentration
# S. aureus = assay: MIC against various organisms (Table I); type: cell-based; conditions: Staphylococcus aureus, read-out: minimum inhibitory concentration
# Sal. enteritidis = assay: MIC against various organisms (Table I); type: cell-based; conditions: Salmonella enterica, read-out: minimum inhibitory concentration
# Ser. marcescens = assay: MIC against various organisms (Table I); type: cell-based; conditions: Serratia marcescens, read-out: minimum inhibitory concentration
# Ps. aeruginosa = assay: MIC against various organisms (Table I); type: cell-based; conditions: Pseudomonas aeruginosa, read-out: minimum inhibitory concentration
# Str. pyogenes = assay: MIC against various organisms (Table I); type: cell-based; conditions: Streptococcus pyogenes; Str. pyogenes + 5% serum; read-out: minimum inhibitory concentration
# E. coli = assay: MIC against various organisms (Table I); type: cell-based; conditions: Escherichia coli, read-out: minimum inhibitory concentration
# K. pneumoniae = assay: MIC against various organisms (Table I); type: cell-based; conditions: Klebsiella pneumoniae, read-out: minimum inhibitory concentration
# in vivo = assay: in vivo; set-up: species or system mice; conditions: mouse, po, 50 mg/kg
# D. pneumoniae = assay: MIC against various organisms (Table I); type: cell-based; conditions: Streptococcus pneumoniae; D. pneumoniae + 5% serum; read-out: minimum inhibitory concentration
# S. aureus BX1633 = assay: MIC against various organisms (Table I); type: cell-based; conditions: Staphylococcus aureus
# Pr. morganii = assay: MIC against various organisms (Table I); type: cell-based; conditions: Morganella morganii, read-out: minimum inhibitory concentration
# [1] = Bioassay of amoxicillin from the ester; conditions: 20 mg. ester in 10 ml. of 50/50 acetone/pH 7.0 buffer
# [2] = in vivo, po
# Procedure: (§1) Only the latter are biologically active per se. Also, both original ester and parent penicillin were measured.
# [3] = Oral absorption in man, BL-P1780 Study 101; conditions: for Cmax: saliva
# Procedure: as §1
# Three formulations were each administered once orally to six (6) healthy adult male subjects in BL-P1780 Study 101 as follows:
# A. BL-P1780, 500 mg. (of amoxicillin-equivalent activity) as two 250 mg. buffered tablets.
# B. BL-P1780, 500 mg. (an amoxicillin-equivalent activity) as two 250 mg. buffered tablets with 3.5 g. sodium bicarbonate being taken five minutes prior to the adminstration of BL-P1780.
# C. Amoxicillin, 500 mg. as two 250 mg. capsules.
# 1. To investigate the human safety and tolerance of single 500 mg. doses of BL-P1780.
# 2. To determine the effect of intragastric buffering with sodium bicarbonate on the absorption of BL-P1780.
# 3. To compare amoxicillin plasma and saliva concentrations and urinary excretion between BL-P1780 and amoxicillin.
# [4] = man, oral 500 mg., six subjects
structure (smiles),measurement,setting,value
"CC1(C)S[C@@H]2[C@H](NC(=O)[C@H](N)c3ccccc3)C(=O)N2[C@H]1C(=O)O [Cpd. A, ampicillin]",MIC,S. aureus Smith; S. aureus Smith + 50% serum,0.06 µg/mL
same,MIC,S. aureus Smith; S. aureus Smith,0.03 µg/mL
same,MIC,Pr. mirabilis,0.16 µg/mL
same,MIC,E. coli Juhl,1 µg/mL
same,MIC,S. aureus; first of three lines,125 µg/mL
same,MIC,S. aureus; second of three lines,125 µg/mL
same,MIC,S. aureus; third of three lines,> 125 µg/mL
same,MIC,Sal. enteritidis,0.13 µg/mL
same,MIC,Ser. marcescens,32 µg/mL
same,MIC,Ps. aeruginosa,> 125 µg/mL
same,MIC,Str. pyogenes,0.004 µg/mL
same,MIC,E. coli,32 µg/mL
same,MIC,"K. pneumoniae; K. pneumoniae, first of two lines",0.3 µg/mL
same,MIC,K. pneumoniae,125 µg/mL
same,concentration at 0.5 h,in vivo,3300 ng/mL
same,concentration at 1 h,in vivo,2100 ng/mL
same,concentration at 2 h,in vivo,900 ng/mL
same,concentration at 3.5 h,in vivo,500 ng/mL
same,MIC,D. pneumoniae,0.004 µg/mL
same,MIC,"S. aureus BX1633; BX1633, read-out: minimum inhibitory concentration, S. aureus BX1633, first of two lines",125 µg/mL
same,MIC,"S. aureus BX1633; BX1633, read-out: minimum inhibitory concentration, S. aureus BX1633, second of two lines",> 125 µg/mL
same,MIC,Pr. morganii,> 125 µg/mL
"COCOC(=O)[C@@H]1N2C(=O)[C@@H](NC(=O)[C@H](N)c3ccc(O)cc3)[C@H]2SC1(C)C [Example 5, methoxymethyl ester of amoxicillin]",bioassay of amoxicillin,[1],1968 µg/mL
same,"bioassay of amoxicillin, percent of theory",[1],about 110 % of theory
"COCOC(=O)[C@@H]1N2C(=O)[C@@H](N3C(=O)[C@@H](c4ccccc4)NC3(C)C)[C@H]2SC1(C)C [BL-P1761, methoxymethyl ester of hetacillin]",hydrolysis of the ester,[2],hydrolyze eventually to their parent penicillins
"CC1(C)S[C@@H]2[C@H](NC(=O)[C@H](N)c3ccc(O)cc3)C(=O)N2[C@H]1C(=O)O [amoxicillin, D-6-(p-hydroxy-α-aminophenylacetamido)penicillanic acid]",Cmax,"[3]; human, po, 500 mg, maximum saliva amoxicillin level, man, oral 500 mg.",60 ng/mL
same,Cmax,"[3]; human, po, 500 mg, mean peak saliva amoxicillin level, man, oral 500 mg.",30 ng/mL
same,dose excreted at 24 h,"[3]; human, urine, po, 500 mg",50.9%
same,time course of saliva amoxicillin levels,"[3]; man, oral 500 mg.",delayed and erratic
same,subjects found to be slow absorbers,[3]; [4],Two of the six subjects
same,subjects with detectable saliva amoxicillin levels,[3]; [4],only 3 of the 6 subjects
